Values joined by “and” are separate entries in the source; they are usually repeats but may differ in a detail not shown here. Equal values may be shown once.
Target: T1, Alpha-mannosidase 2 (Homo sapiens, UniProt Q16706)
T1 sequence (Q16706 whole entry): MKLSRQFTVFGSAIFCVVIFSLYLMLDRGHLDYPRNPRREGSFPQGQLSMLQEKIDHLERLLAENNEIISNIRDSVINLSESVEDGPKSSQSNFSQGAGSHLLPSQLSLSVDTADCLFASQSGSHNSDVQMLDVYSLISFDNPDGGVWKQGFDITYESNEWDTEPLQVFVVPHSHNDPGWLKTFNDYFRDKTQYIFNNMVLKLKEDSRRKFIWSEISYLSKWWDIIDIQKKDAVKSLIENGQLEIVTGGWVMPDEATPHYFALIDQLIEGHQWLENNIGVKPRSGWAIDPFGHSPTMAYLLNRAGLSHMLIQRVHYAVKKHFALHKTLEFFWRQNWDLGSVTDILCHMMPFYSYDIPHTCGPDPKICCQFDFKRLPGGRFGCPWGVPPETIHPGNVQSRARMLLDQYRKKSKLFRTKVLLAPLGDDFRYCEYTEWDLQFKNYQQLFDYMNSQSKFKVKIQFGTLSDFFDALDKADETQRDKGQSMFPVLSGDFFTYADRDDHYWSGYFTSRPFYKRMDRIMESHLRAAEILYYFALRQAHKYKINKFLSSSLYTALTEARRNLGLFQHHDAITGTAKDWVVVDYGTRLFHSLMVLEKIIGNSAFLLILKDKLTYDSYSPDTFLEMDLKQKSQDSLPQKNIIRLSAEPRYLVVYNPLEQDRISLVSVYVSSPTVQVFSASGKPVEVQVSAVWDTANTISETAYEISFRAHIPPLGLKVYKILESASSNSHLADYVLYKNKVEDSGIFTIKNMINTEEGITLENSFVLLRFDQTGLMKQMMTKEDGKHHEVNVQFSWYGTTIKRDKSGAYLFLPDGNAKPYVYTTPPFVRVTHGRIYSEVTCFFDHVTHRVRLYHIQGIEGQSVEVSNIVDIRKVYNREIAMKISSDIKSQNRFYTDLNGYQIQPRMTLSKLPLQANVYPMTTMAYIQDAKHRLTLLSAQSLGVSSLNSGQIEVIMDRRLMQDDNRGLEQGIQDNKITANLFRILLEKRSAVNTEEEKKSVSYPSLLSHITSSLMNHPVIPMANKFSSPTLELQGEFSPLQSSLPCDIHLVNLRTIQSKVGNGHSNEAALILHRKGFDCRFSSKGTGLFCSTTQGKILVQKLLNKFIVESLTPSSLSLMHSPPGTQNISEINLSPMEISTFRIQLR
Conditions: pH 5.6; 37 °C

Structure (SMILES) | Ki
CS[C@H]1[C@H](O)[C@H](O)[C@H](O)[C@@H]1NCc1ccc(F)cc1 [Benzylation of mannostatin A, 1c] | 0.53 µM and 0.17 µM
COc1ccc(CN[C@H]2[C@@H](O)[C@@H](O)[C@@H](O)[C@@H]2SC)cc1 [Benzylation of mannostatin A, 1f] | 0.52 µM and 0.1 µM
CS[C@H]1[C@H](O)[C@H](O)[C@H](O)[C@@H]1NCc1ccc(Cl)cc1 [Benzylation of mannostatin A, 1d] | 0.91 µM and 0.1 µM
CS[C@@H]1[C@@H](N)[C@@H](O)[C@@H](O)[C@H]1O [Mannostatin A, 1] | 0.21 µM and 0.09 µM
N[C@H]1[C@@H](O)[C@@H](O)[C@@H](O)[C@H]1O [Mannostatin analogue, 4b] | 50 µM and 6.6 µM
